# In ChEMBL document CHEMBL3044795, “Synthesis and biological evaluation of novel benzoquinones as potential antimicrobial agents” (2013):
# What was measured:
# Type in all cases: functional
# [1] = system: Bacillus subtilis; test: Antibacterial activity against Bacillus subtilis ATCC 6633 assessed as growth inhibition after 24 hr; settings: ATCC 6633, 24 h
# [2] = system: Staphylococcus aureus; test: Antibacterial activity against Staphylococcus aureus DSM 1104 assessed as growth inhibition after 24 hr by two fold serial dilution method; settings: DSM 1104, 24 h
# [3] = system: Pseudomonas aeruginosa; test: Antibacterial activity against Pseudomonas aeruginosa ATCC 10145 assessed as growth inhibition after 24 hr by two-fold serial dilution method; settings: ATCC 10145, 24 h
# [4] = system: Bacillus subtilis; test: Antibacterial activity against Bacillus subtilis ATCC 6633 assessed as diamater of growth inhibition zone after 24 hr by agar cup diffusion method; also: test concentration or dose not given here
# [5] = system: Bacillus subtilis; test: Antibacterial activity against Bacillus subtilis ATCC 6633 assessed as growth inhibition after 24 hr by two fold serial dilution method; settings: ATCC 6633, 24 h
# [6] = system: Pseudomonas aeruginosa; test: Antibacterial activity against Pseudomonas aeruginosa ATCC 10145 assessed as diamater of growth inhibition zone after 24 hr by agar cup diffusion method; also: test concentration or dose not given here
# [7] = system: Candida albicans; test: Antifungal activity against Candida albicans DSM 70014 assessed as growth inhibition after 48 hr by two-fold serial dilution method; settings: DSM 70014, 48 h
# [8] = system: Staphylococcus aureus; test: Antibacterial activity against Staphylococcus aureus DSM 1104 assessed as growth inhibition after 24 hr; settings: DSM 1104, 24 h
# [9] = system: Escherichia coli; test: Antibacterial activity against Escherichia coli ATCC 11775 assessed as diamater of growth inhibition zone after 24 hr by agar cup diffusion method; also: test concentration or dose not given here
# [10] = system: Candida albicans; test: Antifungal activity against Candida albicans DSM 70014 assessed as diamater of growth inhibition zone after 48 hr by agar cup diffusion method; also: test concentration or dose not given here
# [11] = system: Pseudomonas aeruginosa; test: Antibacterial activity against Pseudomonas aeruginosa ATCC 10145 assessed as growth inhibition after 24 hr; settings: ATCC 10145, 24 h
# [12] = system: Staphylococcus aureus; test: Antibacterial activity against Staphylococcus aureus DSM 1104 assessed as diamater of growth inhibition zone after 24 hr by agar cup diffusion method; also: test concentration or dose not given here
# [13] = system: Escherichia coli; test: Antibacterial activity against Escherichia coli ATCC 11775 assessed as growth inhibition after 24 hr; settings: ATCC 11775, 24 h
# [14] = system: Candida albicans; test: Antifungal activity against Candida albicans DSM 70014 assessed as growth inhibition after 48 hr; settings: DSM 70014, 48 h
# [15] = system: Escherichia coli; test: Antibacterial activity against Escherichia coli ATCC 11775 assessed as growth inhibition after 24 hr by two-fold serial dilution method; settings: ATCC 11775, 24 h
SMILES,MBC [1] [µg/mL],MIC [2] [µg/mL],MIC [3] [µg/mL],diameter of the inhibition zone (DIZ) [4] [mm],MIC [5] [µg/mL],diameter of the inhibition zone (DIZ) [6] [mm],MIC [7] [µg/mL],MBC [8] [µg/mL],diameter of the inhibition zone (DIZ) [9] [mm],diameter of the inhibition zone (DIZ) [10] [mm],MBC [11] [µg/mL],diameter of the inhibition zone (DIZ) [12] [mm],MBC [13] [µg/mL],MFC [14] [µg/mL],MIC [15] [µg/mL]
COc1ccc(/C=N/N=c2\scc(C3=CC(=O)C=CC3=O)n2-c2ccccc2)cc1,50,50,50,15,50,15,50,50,16,15,50,15,50,50,25
COc1ccc(OC)c(/C=N/N=c2\scc(C3=CC(=O)C=CC3=O)n2-c2ccccc2)c1,50,50,50,15,50,14,50,50,14,15,50,14,50,50,50
COc1cc(/C=N/N=c2\scc(C3=CC(=O)C=CC3=O)n2-c2ccccc2)ccc1O,100,25,100,15,50,14,25,50,15,12,100,15,100,50,100
COc1ccc(/C=N/N=c2\scc(C3=CC(=O)C=CC3=O)n2-c2ccccc2)cc1O,100,50,100,15,100,16,100,50,14,14,100,14,50,100,50
COc1ccc(OC)c(/C=N/N=c2\scc(C3=CC(=O)C=CC3=O)n2-c2ccc(C)cc2)c1,25,12.5,25,15,12.5,14,25,25,14,13,50,16,50,50,25
COc1cc(/C=N/N=c2\scc(C3=CC(=O)C=CC3=O)n2-c2ccc(C)cc2)ccc1O,100,25,100,15,100,15,50,50,15,15,100,14,50,50,50
COc1ccc(/C=N/N=c2\scc(C3=CC(=O)C=CC3=O)n2-c2ccc(C)cc2)cc1O,50,100,50,14,50,14,50,100,14,15,50,15,50,100,50
COc1ccc(/C=N/N=c2\scc(C3=CC(=O)C=CC3=O)n2-c2ccc(Cl)cc2)cc1,100,100,100,15,100,16,100,100,16,14,100,14,100,100,100
COc1ccc(OC)c(/C=N/N=c2\scc(C3=CC(=O)C=CC3=O)n2-c2ccc(Cl)cc2)c1,100,25,100,14,100,16,50,50,13,14,100,14,100,100,100
COc1cc(/C=N/N=c2\scc(C3=CC(=O)C=CC3=O)n2-c2ccc(Cl)cc2)ccc1O,100,100,50,14,100,15,50,100,16,15,100,16,100,50,100
COc1ccc(/C=N/N=c2\scc(C3=CC(=O)C=CC3=O)n2-c2ccc(Cl)cc2)cc1O,50,50,50,14,25,14,12.5,50,14,15,50,13,50,25,25
CC1(C)S[C@@H]2[C@H](NC(=O)[C@H](N)c3ccccc3)C(=O)N2[C@H]1C(=O)O.O.O.O [AMPICILLIN TRIHYDRATE],–,5,50,–,12.5,–,–,–,–,–,–,–,–,–,10
Clc1ccccc1C(c1ccccc1)(c1ccccc1)n1ccnc1 [CLOTRIMAZOLE],–,–,–,–,–,–,5,–,–,–,–,–,–,–,–
